Results from BindingDB's records for doi:10.1021/jm00043a011 (University of Athens, 1994).
*1 amine or outer side, *2 acyl side, *3 side chain or, on linkers, in order; H or OH if unused. Where a SMILES comes first, the peptide text is derived from it. [ ]: non-standard residue; d: D form. PheΨ(PO2HCH2)Gly = O=C(CCP(=O)(O)[C@H](Cc1ccccc1)N[*:1])[*:2]; X2 = O=C(CCP(=O)(O)[C@@H](Cc1ccccc1)N[*:1])[*:2]; X1 = O=C(CCP(O)(O)=C(Cc1ccccc1)N[*:1])[*:2]; Nle = CCCC[C@H](N)C(=O)O

experiment: Binding constant containing a pseudophenylalanine residue

Compound	Ki [µM]
CCCCC1NC(=O)[C@H]2CCCN2C(=O)CCP(=O)(O)[C@@H](Cc2ccccc2)NC(=O)[C@@H]2CCCN2C(=O)CCNC1=O (stereo partly drawn) [(6S,9S,22R)-6-Benzyl-19-butyl-5-hydroxy-5-oxo-1,7,13,17,20-pentaaza-5lambda*5*-phospha-tricyclo[20.3.0.0*9,13*]pentacosane-2,8,14,18,21-pentaone]	0.09

experiment: as above; remark: another data set of the same source

Compound	Ki [µM]
CCCC[C@@H]1NC(=O)[C@@H]2CCCN2C(=O)CCP(O)(O)=C(Cc2ccccc2)NC(=O)[C@@H]2CCCN2C(=O)CNC1=O (cyclo(GP[X1]P[Nle]))	0.12

experiment: Inhibition of bacterial collagenase from corynebacterium rathaii

Compound	Ki [µM]
C[C@@H]1NC(=O)[C@@H]2CCCN2C(=O)[C@H](C)NC(=O)CCP(=O)(O)[C@@H](Cc2ccccc2)NC(=O)[C@@H]2CCCN2C(=O)CNC1=O (cyclo(AGP[X2]AP))	12
CCCC[C@@H]1NC(=O)[C@@H]2CCCN2C(=O)CCP(=O)(O)[C@H](Cc2ccccc2)NC(=O)[C@@H]2CCCN2C(=O)CNC1=O	0.18
CCCCC1NC(=O)[C@H]2CCCN2C(=O)CCP(=O)(O)[C@@H](Cc2ccccc2)NC(=O)[C@@H]2CCCN2C(=O)CCNC1=O (stereo partly drawn) [(6S,9S,22R)-6-Benzyl-19-butyl-5-hydroxy-5-oxo-1,7,13,17,20-pentaaza-5lambda*5*-phospha-tricyclo[20.3.0.0*9,13*]pentacosane-2,8,14,18,21-pentaone]	0.09
C[C@@H]1NC(=O)[C@@H]2CCCN2C(=O)[C@H](C)NC(=O)CCP(=O)(O)[C@H](Cc2ccccc2)NC(=O)[C@@H]2CCCN2C(=O)CNC1=O (cyclo(AGP[PheΨ(PO2HCH2)Gly]AP))	20
O=C1NCC(=O)N2CCC[C@H]2C(O)N=C(Cc2ccccc2)P(O)(O)=CCC(=O)N2CCC[C@@H]12 (stereo partly drawn)	6
COC(=O)[C@H]1CSSC[C@@H](NC(C)=O)C(=O)N2CCC[C@@H]2C(=O)N[C@@H](Cc2ccccc2)P(=O)(O)CCC(=O)N2CCC[C@@H]2C(=O)N1	45
CCCC[C@@H]1NC(=O)[C@@H]2CCCN2C(=O)CCP(O)(O)=C(Cc2ccccc2)NC(=O)[C@@H]2CCCN2C(=O)[C@H](CO)NC1=O (cyclo([Nle]SP[X1]P))	25
O=C1NCC(=O)N2CCC[C@H]2C(=O)N[C@@H](Cc2ccccc2)P(=O)(O)CCC(=O)N2CCC[C@@H]12	9
COC(=O)[C@@H]1CSSC[C@H](NC(C)=O)C(=O)N2CCC[C@H]2C(=O)N[C@H](Cc2ccccc2)P(=O)(O)CCC(=O)N2CCC[C@H]2C(=O)N1	3
CCCC[C@@H]1NC(=O)[C@@H]2CCCN2C(=O)CCP(O)(O)=C(Cc2ccccc2)NC(=O)[C@@H]2CCCN2C(=O)CNC1=O (cyclo(GP[X1]P[Nle]))	0.12
CCCC[C@@H]1NC(=O)[C@@H]2CCCN2C(=O)CCP(=O)(O)[C@H](Cc2ccccc2)NC(=O)[C@@H]2CCCN2C(=O)[C@H](CO)NC1=O (cyclo([Nle]SP[PheΨ(PO2HCH2)Gly]P))	40
